Assay results published in PMC8694143 (Microbiology Spectrum, 2021).
No end group written: not given here.

How the values were obtained:
[1] = tested on: S. auricularis; experiment: MIC determination in broth; type: cell-based, Staphylococcus auricularis; details: isolate from the healthy quarter of a dairy cow; MH broth
Method: (§1) The MICs were measured for bioactive peptides identified from the initial screen. Cation-adjusted Mueller-Hinton (MH) broth was used as the growth medium for MIC determination experiments. Bacterial cultures were diluted to an OD of 5 × 10^−4 (∼10^5 CFU/mL) in 200 μL MH broth mixed with peptides in a 2-fold dilution series arrayed in 96-well plates. Plates were incubated without shaking at 30 or 37°C depending on the organism.

[2] = tested on: MRSA ATCC BAA-41; experiment: MIC determination in broth; type: cell-based, Staphylococcus aureus; details: STIP3 variants, highest conc. tested 100 μg/mL; cation-adjusted MH broth, ~10^5 CFU/mL, 2-fold dilution series, 37°C, 16 h
Outline: (§2)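 Twofold serial peptide dilutions; cation-adjusted MH broth; ∼10^5 CFU/mL starting inoculum; 37°C, no shaking.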

[3] = tested on: MRSA ATCC BAA-44; experiment: MIC determination in broth; type: cell-based, Staphylococcus aureus; details: STIP3 variants, highest conc. tested 100 μg/mL; cation-adjusted MH broth, ~10^5 CFU/mL, 2-fold dilution series, 37°C, 16 h
Outline: as §2

[4] = tested on: MRSA ATCC BAA-1683; experiment: MIC determination in broth; type: cell-based, Staphylococcus aureus; details: STIP3 variants, highest conc. tested 100 μg/mL; cation-adjusted MH broth, ~10^5 CFU/mL, 2-fold dilution series, 37°C, 16 h
Outline: as §2

[5] = tested on: MRSA ATCC BAA-2094; experiment: MIC determination in broth; type: cell-based, Staphylococcus aureus; details: STIP3 variants, highest conc. tested 100 μg/mL; cation-adjusted MH broth, ~10^5 CFU/mL, 2-fold dilution series, 37°C, 16 h
Outline: as §2

[6] = tested on: S. aureus ATCC 29213; experiment: MIC determination in broth; type: cell-based, Staphylococcus aureus; details: STIP3 variants, highest conc. tested 100 μg/mL; cation-adjusted MH broth, ~10^5 CFU/mL, 2-fold dilution series, 37°C, 16 h
Outline: as §2

[7] = tested on: MRSA ATCC BAA-2313; experiment: MIC determination in broth; type: cell-based, Staphylococcus aureus; details: STIP3 variants, highest conc. tested 100 μg/mL; cation-adjusted MH broth, ~10^5 CFU/mL, 2-fold dilution series, 37°C, 16 h
Outline: as §2

[8] = tested on: MRSA ATCC 33592; experiment: MIC determination in broth; type: cell-based, Staphylococcus aureus
Outline: as §2

[9] = tested on: MRSA ATCC BAA-42; experiment: MIC determination in broth; type: cell-based, Staphylococcus aureus; details: STIP3 variants, highest conc. tested 100 μg/mL; cation-adjusted MH broth, ~10^5 CFU/mL, 2-fold dilution series, 37°C, 16 h
Outline: as §2

[10] = Circular dichroism spectroscopy; type: physicochemical; details: CD, 50% TFE (vol/vol), peptide 0.2 mg/mL, room temperature
Method: Peptides were dissolved in ultrapure water or 50% TFE (vol/vol) at a concentration of 0.2 mg/mL for spectroscopy. Spectra of samples in a 1 mm pathlength quartz cuvette were recorded from 180 to 260 nm at 0.5 nm steps using an Applied Photophysics Chirascan Plus CD spectrophotometer operating at room temperature.

[11] = tested on: S. aureus bovid isolate (RDM-1); experiment: MIC determination in broth; type: cell-based, Staphylococcus aureus; details: clinical isolate, mastitis in a dairy cow; MH broth
Method: as §1

[12] = tested on: sheep red blood cells; experiment: Hemolytic activity assay; type: cell-based; details: peptides at 100 μg/mL, 1 h, relative to the δ-toxin and other STIPs
Method: Thirty-five percent defibrinated sheep’s blood (vol/vol) was centrifuged for 5 min at 4,000 rpm to harvest red blood cells. The cells were washed three times with PBS and harvested by centrifugation prior to dilution to 15% (vol/vol) in PBS in order to evaluate peptide-mediated hemolysis. The assay was performed in 96-well microtiter plates using peptides at 100 μg/mL in a 200-μL volume. […] was used as a negative control and Triton X-100 (0.1% vol/vol) was used as a positive control for complete lysis. After 1 h of incubation, the 96-well microtiter plates were centrifuged at 4,500 rpm for 10 min and a 150 μL aliquot of the supernatant from each sample was carefully transferred to a new 96-well plate. The absorbance of the supernatant was then measured at 540 nm using a Varioskan Lux plate reader (Thermo Scientific). The hemolytic activity is reported relative to complete lysis (%) obtained using Triton X-100. Experiments were performed in triplicate, and statistical differences in hemolysis were measured using an unpaired two-tailed Student’s t test to compare the STIPs and deformylated δ-toxin to the formylated δ-toxin.

[13] = tested on: MRSA 33592; experiment: Transmission electron microscopy; type: cell-based, Staphylococcus aureus; details: 25 μg/mL, PBS, 37°C
Method: Samples for TEM imaging were prepared by diluting MRSA 33592 cultures to an OD of 0.5 in PBS before the cell suspension was treated with 25 μg/mL STIP3-29. Treated and untreated cells were incubated at 37°C. Treated samples were prepared from imaging after 30 min and 4 h of treatment. An untreated control sample was prepared after a 4 h incubation period. Cells from the distinct time points or treatments were harvested by centrifugation, fixed for 4 h using 2% glutaraldehyde, postfixed for 1 h with 1% OsO4, dehydrated with a graded ethanol series, embedded in Epon, and en bloc stained with saturated uranyl acetate in 70% ethanol prior to sectioning. Imaging was performed using a Hitachi HT7700 instrument.

[14] = tested on: M. luteus ATCC 4698; experiment: MIC determination in broth; type: cell-based, Micrococcus luteus
[15] = tested on: Mannheimia haemolytica ATCC 33396; experiment: MIC determination in broth; type: cell-based; details: MH broth
Method: as §1

[16] = tested on: Escherichia coli DH10B; experiment: MIC determination in broth; type: cell-based; details: MH broth
Method: as §1

[17] = tested on: S. scuri; experiment: MIC determination in broth; type: cell-based; details: isolate from the healthy quarter of a dairy cow; MH broth
Method: as §1

[18] = tested on: Pseudomonas aeruginosa ATCC 27853; experiment: MIC determination in broth; type: cell-based; details: MH broth
Method: as §1

TVGGLVKWILKTVKKFA-NH2 [STIP3-29]
MIC, S. auricularis [1]: 1.56 µg/mL
MIC, S. aureus ATCC BAA 41 (SCCmec II) [2]: 6.25 µg/mL
MIC, S. aureus ATCC BAA 44 (SCCmec I) [3]: 6.25 µg/mL
MIC, S. aureus ATCC BAA 1683 (SCCmec IV) [4]: 6.25 µg/mL
MIC, S. aureus ATCC BAA 2094 (SCCmec V) [5]: 6.25 µg/mL
MIC, S. aureus ATCC 29213 [6]: 12.5 µg/mL
MIC, S. aureus ATCC BAA 2313 (SCCmec XI) [7]: 6.25 µg/mL
Improvement to antibiotic activity relative to STIP3-1 ([8]; S. aureus ATCC 29213 and MRSA panel MICs): 16 fold
MIC (μg/mL) for MRSA ATCC 33592 ([8]; Table 1 and text, cation-adjusted MH broth, ~10^5 CFU/mL, 37°C, 16 h): 6.25 µg/mL
MIC, S. aureus ATCC 33592 (SCCmec III) ([8]; Table S5, STIP3 variants, highest conc. tested 100 μg/mL, cation-adjusted MH broth, ~10^5 CFU/mL, 2-fold dilution series, 37°C, 16 h): 6.25 µg/mL
MIC for MRSA, molar ([8]; conversion of 6.25 μg/mL): 3.3 µM
MIC, S. aureus ATCC BAA 42 (SCCmec VI) [9]: 6.25 µg/mL
α-Helical content (%) [10]: 61%
MIC, S. aureus bovid isolate (RDM-1) [11]: 6.25 µg/mL
Change of hemolytic activity [12]: increase in hemolysis
Peptide-induced lysis by TEM, 30 min ([13]; 30 min): No peptide-induced lysis was observed
Peptide-induced lysis by TEM, 4 h ([13]; 4 h): evidence was present
MIC, M. luteus ([14]; cation-adjusted MH broth, ~10^5 CFU/mL, 30°C, 48 h): 1.56 µg/mL
MIC, M. luteus, molar ([14]; conversion of 1.56 μg/mL): 0.85 µM
MIC, Mannheimia haemolytica ATCC 33396 [15]: 6.25 µg/mL
MIC, Escherichia coli DH10B [16]: 12.5 µg/mL
MIC, S. scuri [17]: 3.13 µg/mL
MIC, Pseudomonas aeruginosa ATCC 27853 [18]: 50 µg/mL
